Assay results: ChEMBL document CHEMBL4813925, “Antibacterial Drimane Sesquiterpenes from Aspergillus ustus” (J Nat Prod, 2021)
≈ marks a conversion by molar mass, not a printed value. Calls of active or inactive are those of the source. No cut-off for these calls is given here.

Legend:
Staphylococcus aureus [1] = assay: Antibacterial activity against multidrug-resistant Staphylococcus aureus ATCC BAA-44 assessed as bacterial growth inhibition by CLSI protocol based microbroth dilution method; assay type: functional
Bacillus subtilis [2] = assay: Antibacterial activity against Bacillus subtilis ATCC 49343 assessed as bacterial growth inhibition by CLSI protocol based microbroth dilution method; assay type: functional
Enterococcus faecium [3] = assay: Antibacterial activity against vancomycin-resistant Enterococcus faecium ATCC 700221 assessed as bacterial growth inhibition by CLSI protocol based microbroth dilution method; assay type: functional
Staphylococcus aureus [4] = assay: Synergistic antibacterial activity against multidrug-resistant Staphylococcus aureus ATCC BAA-44 assessed as bacterial growth inhibition in presence of Stromemycin; assay type: functional
Enterococcus faecium [5] = assay: Synergistic antibacterial activity against vancomycin-resistant Enterococcus faecium ATCC 700221 assessed as coefficient of drug interaction in presence of ustusoic-acidB; assay type: functional
Staphylococcus aureus [6] = assay: Synergistic antibacterial activity against multidrug-resistant Staphylococcus aureus ATCC BAA-44 assessed as coefficient of drug interaction in presence of ustusoic-acidB; assay type: functional
Candida albicans = assay: Antifungal activity against Candida albicans ATCC 90027 assessed as fungal growth inhibition by CLSI protocol based microbroth dilution method; assay type: functional, organism-based
Bacillus subtilis [7] = assay: Synergistic antibacterial activity against Bacillus subtilis ATCC 49343 assessed as bacterial growth inhibition in presence of Stromemycin; assay type: functional
Enterococcus faecium [8] = assay: Synergistic antibacterial activity against vancomycin-resistant Enterococcus faecium ATCC 700221 assessed as bacterial growth inhibition in presence of Stromemycin; assay type: functional
HCT-116 = assay: Cytotoxicity against human HCT-116 cells by MTT assay; assay type: cell-based
Bacillus subtilis [9] = assay: Synergistic antibacterial activity against Bacillus subtilis ATCC 49343 assessed as coefficient of drug interaction in presence of ustusoic-acidB; assay type: functional
Enterococcus faecium [10] = assay: Synergistic antibacterial activity against vancomycin-resistant Enterococcus faecium ATCC 700221 assessed as bacterial growth inhibition in presence of ustusoic-acidB; assay type: functional
Staphylococcus aureus [11] = assay: Synergistic antibacterial activity against multidrug-resistant Staphylococcus aureus ATCC BAA-44 assessed as coefficient of drug interaction in presence of Stromemycin; assay type: functional
Enterococcus faecium [12] = assay: Synergistic antibacterial activity against vancomycin-resistant Enterococcus faecium ATCC 700221 assessed as coefficient of drug interaction in presence of Stromemycin; assay type: functional
Bacillus subtilis [13] = assay: Synergistic antibacterial activity against Bacillus subtilis ATCC 49343 assessed as coefficient of drug interaction in presence of Stromemycin; assay type: functional
Bacillus subtilis [14] = assay: Synergistic antibacterial activity against Bacillus subtilis ATCC 49343 assessed as bacterial growth inhibition in presence of ustusoic-acidB; assay type: functional
Staphylococcus aureus [15] = assay: Synergistic antibacterial activity against multidrug-resistant Staphylococcus aureus ATCC BAA-44 assessed as bacterial growth inhibition in presence of ustusoic-acidB; assay type: functional

Work on `C/C=C/C=C/C=C/C(=O)O[C@@H]1C=C(CO)[C@](O)(C(=O)O)[C@@]2(C)CCCC(C)(C)[C@H]12` yielded an MIC (Staphylococcus aureus [1]; read-out: MIC) of over 128 µg/mL, an MIC (Bacillus subtilis [2]) of 64 µg/mL (≈ 158 µM) and an MIC (Enterococcus faecium [3]) of 128 µg/mL (≈ 316 µM).
In the case of `CN[C@H](CC(C)C)C(=O)N[C@H]1C(=O)N[C@@H](CC(N)=O)C(=O)N[C@H]2C(=O)N[C@H]3C(=O)N[C@H](C(=O)N[C@H](C(=O)O)c4cc(O)cc(O)c4-c4cc3ccc4O)[C@H](O)c3ccc(c(Cl)c3)Oc3cc2cc(c3O[C@@H]2O[C@H](CO)[C@@H](O)[C@H](O)[C@H]2O[C@H]2C[C@](C)(N)[C@H](O)[C@H](C)O2)Oc2ccc(cc2Cl)[C@H]1O` [VANCOMYCIN], the MIC (Staphylococcus aureus [1]; read-out: MIC100) is reported as 125 µg/mL (≈ 86.3 µM).
Compound `C/C=C/C=C/C=C/C(=O)O[C@@H]1C=C(C=O)[C@](O)(C(=O)O)[C@@]2(C)CCCC(C)(C)[C@H]12` has an MIC (Staphylococcus aureus [4]) of 64 µg/mL, a CI (Enterococcus faecium [5]) of 0.00013 and an MIC (Staphylococcus aureus [1]; read-out: MIC) of over 128 µg/mL. For the same compound, the CI (Staphylococcus aureus [6]) was 0.00014, the Activity (Candida albicans) was “inactive” and the MIC (Bacillus subtilis [7]) was 8 µg/mL. For the same compound, the MIC (Bacillus subtilis [2]) was 38 µg/mL (≈ 94.4 µM), the MIC (Enterococcus faecium [8]) was 32 µg/mL and the Activity (HCT-116) was “Non-Toxic”. It also gave an MIC (Enterococcus faecium [3]) of 67 µg/mL (≈ 166 µM) and a CI (Bacillus subtilis [9]) of 0.0009.
Compound `O=C1CN(/N=C/c2ccc([N+](=O)[O-])o2)C(=O)N1` [NITROFURANTOIN] has an MIC99 (Enterococcus faecium [3]) of 125 µg/mL (≈ 525 µM).
`CCC/C=C/C=C/CCc1cc(OC(=O)c2c(CC/C=C/C=C/CCC)cc(O)c([C@@H]3O[C@H](CO)[C@@H](O)[C@H](O)[C@H]3O)c2O)cc(O)c1C(=O)O` gave an MIC (Enterococcus faecium [10]) of 32 µg/mL, an MIC (Staphylococcus aureus [1]; read-out: MIC) of over 128 µg/mL and a CI (Staphylococcus aureus [11]) of 0.00014. The CI (Enterococcus faecium [12]) was 0.00013, the Activity (Candida albicans) was “inactive” and the CI (Bacillus subtilis [13]) was 0.0009. For the same compound, the MIC (Bacillus subtilis [2]) was 64 µg/mL (≈ 91.8 µM), the MIC (Bacillus subtilis [14]) was 8 µg/mL and the Activity (HCT-116) was “Non-Toxic”. The MIC (Staphylococcus aureus [15]) was 64 µg/mL and the MIC (Enterococcus faecium [3]) was over 128 µg/mL.
Work on `O=C(N[C@H](CO)[C@H](O)c1ccc([N+](=O)[O-])cc1)C(Cl)Cl` [CHLORAMPHENICOL] yielded an MIC99 (Bacillus subtilis [2]) of 125 µg/mL (≈ 387 µM).
